Key:
Test in all cases: relative viability (nuclei count vs DMSO), 5 days (fraction); higher = more cells survive
201T = tested on: 201T
How it was run: (§1)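 A single step with final 0.05% Triton X-100, 1% formaldehyde and 1 ug/ml Hoechst fixed the cells and stained nuclei 5 days after treatment. Lung cancer cell lines in 1536-well plates had been treated by pin tool the day after seeding with one drug alone or a fixed anchor-drug dose plus five library-drug doses (not always all listed) in √10 steps, and nuclei were counted on 4× images. Relative viability is the ratio of nuclei in treated wells to nuclei in vehicle wells, taken as the median of duplicate plates.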

ABC-1 = tested on: ABC-1
How it was run: as §1

EMC-BAC-2 = tested on: EMC-BAC-2
How it was run: as §1

EPLC-272H = tested on: EPLC-272H
How it was run: as §1

HCC-78 = tested on: HCC-78
How it was run: as §1

LCLC-103H = tested on: LCLC-103H
How it was run: as §1

LOU-NH91 = tested on: LOU-NH91
How it was run: as §1

NCI-H1395 = tested on: NCI-H1395
How it was run: as §1

NCI-H1437 = tested on: NCI-H1437
How it was run: as §1

NCI-H1651 = tested on: NCI-H1651
How it was run: as §1

NCI-H1734 = tested on: NCI-H1734
How it was run: as §1

NCI-H1792 = tested on: NCI-H1792
How it was run: as §1

NCI-H1793 = tested on: NCI-H1793
How it was run: as §1

NCI-H1915 = tested on: NCI-H1915
How it was run: as §1

NCI-H1975 = tested on: NCI-H1975
How it was run: as §1

NCI-H23 = tested on: NCI-H23
How it was run: as §1

NCI-H2405 = tested on: NCI-H2405
How it was run: as §1

NCI-H647 = tested on: NCI-H647
How it was run: as §1

RERF-LC-KJ = tested on: RERF-LC-KJ
How it was run: as §1

SMILES: O=c1[nH]c2ccccc2n1C1CCN(CCCC(c2ccc(F)cc2)c2ccc(F)cc2)CC1 [Pimozide] + NC(=O)Nc1cc(-c2cccc(F)c2)sc1C(=O)N[C@H]1CCCNC1 [AZD7762] (partner 0.2 µM)
- relative viability (201T; first compound 0.08 µM): 0.602
- relative viability (201T; first compound 0.253 µM): 0.615
- relative viability (201T; first compound 0.8 µM): 0.541
- relative viability (201T; first compound 2.53 µM): 0.537
- relative viability (201T; first compound 8 µM): 0.652
- relative viability (ABC-1; first compound 0.253 µM): 0.775
- relative viability (ABC-1; first compound 0.8 µM): 0.817
- relative viability (ABC-1; first compound 2.53 µM): 0.583
- relative viability (ABC-1; first compound 8 µM): 0.509
- relative viability (EMC-BAC-2; first compound 0.08 µM): 1.06
- relative viability (EMC-BAC-2; first compound 0.253 µM): 1.03
- relative viability (EMC-BAC-2; first compound 0.8 µM): 1
- relative viability (EMC-BAC-2; first compound 2.53 µM): 1.09
- relative viability (EMC-BAC-2; first compound 8 µM): 1
- relative viability (EPLC-272H; first compound 0.08 µM): 0.229
- relative viability (EPLC-272H; first compound 0.253 µM): 0.163
- relative viability (EPLC-272H; first compound 0.8 µM): 0.265
- relative viability (EPLC-272H; first compound 2.53 µM): 0.289
- relative viability (EPLC-272H; first compound 8 µM): 0.282
- relative viability (HCC-78; first compound 0.08 µM): 0.547
- relative viability (HCC-78; first compound 0.8 µM): 0.607
- relative viability (HCC-78; first compound 2.53 µM): 0.55
- relative viability (HCC-78; first compound 8 µM): 0.6
- relative viability (LCLC-103H; first compound 0.08 µM): 0.743
- relative viability (LCLC-103H; first compound 0.253 µM): 0.778
- relative viability (LCLC-103H; first compound 0.8 µM): 0.733
- relative viability (LCLC-103H; first compound 2.53 µM): 0.802
- relative viability (LCLC-103H; first compound 8 µM): 0.686
- relative viability (LOU-NH91; first compound 0.08 µM): 0.713
- relative viability (LOU-NH91; first compound 0.253 µM): 0.746
- relative viability (LOU-NH91; first compound 0.8 µM): 0.776
- relative viability (LOU-NH91; first compound 2.53 µM): 0.778
- relative viability (LOU-NH91; first compound 8 µM): 0.778
- relative viability (NCI-H1395; first compound 0.08 µM): 0.369
- relative viability (NCI-H1395; first compound 0.253 µM): 0.42
- relative viability (NCI-H1395; first compound 0.8 µM): 0.417
- relative viability (NCI-H1395; first compound 2.53 µM): 0.389
- relative viability (NCI-H1395; first compound 8 µM): 0.394
- relative viability (NCI-H1437; first compound 0.08 µM): 1.14
- relative viability (NCI-H1437; first compound 0.253 µM): 1.09
- relative viability (NCI-H1437; first compound 0.8 µM): 1.03
- relative viability (NCI-H1437; first compound 2.53 µM): 1.05
- relative viability (NCI-H1437; first compound 8 µM): 1.09
- relative viability (NCI-H1651; first compound 0.08 µM): 0.453
- relative viability (NCI-H1651; first compound 0.253 µM): 0.423
- relative viability (NCI-H1651; first compound 0.8 µM): 0.41
- relative viability (NCI-H1651; first compound 2.53 µM): 0.433
- relative viability (NCI-H1651; first compound 8 µM): 0.469
- relative viability (NCI-H1734; first compound 0.08 µM): 0.573
- relative viability (NCI-H1734; first compound 0.253 µM): 0.558
- relative viability (NCI-H1734; first compound 0.8 µM): 0.487
- relative viability (NCI-H1734; first compound 2.53 µM): 0.511
- relative viability (NCI-H1734; first compound 8 µM): 0.485
- relative viability (NCI-H1792; first compound 0.08 µM): 0.793
- relative viability (NCI-H1792; first compound 0.253 µM): 0.733
- relative viability (NCI-H1792; first compound 0.8 µM): 0.679
- relative viability (NCI-H1792; first compound 2.53 µM): 0.748
- relative viability (NCI-H1792; first compound 8 µM): 0.5
- relative viability (NCI-H1793; first compound 0.08 µM): 0.553
- relative viability (NCI-H1793; first compound 0.253 µM): 0.36
- relative viability (NCI-H1793; first compound 0.8 µM): 0.352
- relative viability (NCI-H1793; first compound 2.53 µM): 0.263
- relative viability (NCI-H1793; first compound 8 µM): 0.28
- relative viability (NCI-H1915; first compound 0.08 µM): 0.661
- relative viability (NCI-H1915; first compound 0.253 µM): 0.61
- relative viability (NCI-H1915; first compound 2.53 µM): 0.674
- relative viability (NCI-H1915; first compound 8 µM): 0.718
- relative viability (NCI-H1975; first compound 0.08 µM): 0.691
- relative viability (NCI-H1975; first compound 0.253 µM): 0.635
- relative viability (NCI-H1975; first compound 0.8 µM): 0.684
- relative viability (NCI-H1975; first compound 2.53 µM): 0.649
- relative viability (NCI-H1975; first compound 8 µM): 0.766
- relative viability (NCI-H23; first compound 0.08 µM): 0.248
- relative viability (NCI-H23; first compound 0.253 µM): 0.315
- relative viability (NCI-H23; first compound 0.8 µM): 0.195
- relative viability (NCI-H23; first compound 2.53 µM): 0.167
- relative viability (NCI-H23; first compound 8 µM): 0.213
- relative viability (NCI-H2405; first compound 0.08 µM): 0.741
- relative viability (NCI-H2405; first compound 0.253 µM): 0.716
- relative viability (NCI-H2405; first compound 0.8 µM): 0.673
- relative viability (NCI-H2405; first compound 2.53 µM): 0.608
- relative viability (NCI-H2405; first compound 8 µM): 0.426
- relative viability (NCI-H647; first compound 0.08 µM): 0.46
- relative viability (NCI-H647; first compound 0.253 µM): 0.26
- relative viability (NCI-H647; first compound 0.8 µM): 0.245
- relative viability (NCI-H647; first compound 2.53 µM): 0.409
- relative viability (NCI-H647; first compound 8 µM): 0.532
- relative viability (RERF-LC-KJ; first compound 0.08 µM): 0.91
- relative viability (RERF-LC-KJ; first compound 0.253 µM): 0.866
- relative viability (RERF-LC-KJ; first compound 0.8 µM): 0.806
- relative viability (RERF-LC-KJ; first compound 2.53 µM): 0.757
- relative viability (RERF-LC-KJ; first compound 8 µM): 0.81
